According to patent US9346815B2, “5-chloro-2-difluoromethoxyphenyl pyrazolopyrimidine compounds, compositions and methods of use thereof” (Genentech, Inc., priority 2014, dated 2016):

Tests used:
[1] = molecular target: isolated recombinant JAK1 kinase domain (Homo sapiens (Human), UniProt P23458); test: JAK1 enzyme assay (Caliper LabChip, peptide phosphorylation); type: biochemical; conditions: isolated recombinant JAK1 kinase domain, 25 μM ATP
[2] = molecular target: isolated recombinant JAK2 kinase domain (Homo sapiens (Human), UniProt O60674); test: JAK2 enzyme assay (Caliper LabChip, peptide phosphorylation); type: biochemical; conditions: 25 μM ATP
Chain of isolated recombinant JAK2 kinase domain (O60674 849-1124): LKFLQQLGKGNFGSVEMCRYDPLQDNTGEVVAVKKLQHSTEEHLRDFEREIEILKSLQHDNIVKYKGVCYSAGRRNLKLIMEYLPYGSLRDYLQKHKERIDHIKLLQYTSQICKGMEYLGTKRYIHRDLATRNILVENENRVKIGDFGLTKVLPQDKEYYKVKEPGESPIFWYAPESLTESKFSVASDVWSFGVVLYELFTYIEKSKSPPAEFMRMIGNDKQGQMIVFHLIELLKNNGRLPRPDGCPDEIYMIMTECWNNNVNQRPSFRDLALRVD

[3] = tested on: JAK1-dependent STAT6 phosphorylation downstream of IL-13 stimulation in BEAS-2B human bronchial epithelial cells; test: JAK1 pathway assay in BEAS-2B cells (IL-13-pSTAT6, MSD); type: cell-based; conditions: read-out: IL13-pSTAT6 EC50 (uM)_BEAS-2B
Method in brief: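 TF-1 cells are starved of GM-CSF overnight and run in serum-free medium, while BEAS-2B cells stay in complete growth medium. Inhibition of STAT6 phosphorylation is measured by MSD.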

Chain of isolated recombinant JAK1 kinase domain (P23458 875-1153): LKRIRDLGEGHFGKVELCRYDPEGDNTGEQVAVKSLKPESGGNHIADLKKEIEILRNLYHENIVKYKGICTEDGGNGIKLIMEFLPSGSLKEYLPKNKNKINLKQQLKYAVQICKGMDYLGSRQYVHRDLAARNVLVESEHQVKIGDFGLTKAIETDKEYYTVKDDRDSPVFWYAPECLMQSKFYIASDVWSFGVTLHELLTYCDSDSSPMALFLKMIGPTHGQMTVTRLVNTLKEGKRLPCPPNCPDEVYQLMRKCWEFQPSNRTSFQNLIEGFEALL

Row | SMILES | Ki [1] [nM] | Ki [2] [nM] | EC50 [3] [µM]
1 | O=C(Nc1cn(CC(=O)N2CCC(OCC(=O)N3CCOCC3)CC2)nc1-c1cc(Cl)ccc1OC(F)F)c1cnn2cccnc12 [Example 453, N-(3-(5-chloro-2-(difluoromethoxy)phenyl)-1-(2-(4-(2-morpholino-2-oxoethoxy)piperidin-1-yl)-2-oxoethyl)-1H-pyrazol-4-yl)pyrazolo[1,5-a]pyrimidine-3-carboxamide] | 0.41 | 1.3 | 0.0304
2 | CN(C)C(=O)CN1CCN(CC2CCN(C(=O)Cn3cc(NC(=O)c4cnn5cccnc45)c(-c4cc(Cl)ccc4OC(F)F)n3)CC2)CC1 [Example 427, N-(3-(5-chloro-2-(difluoromethoxy)phenyl)-1-(2-(4-((4-(2-(dimethylamino)-2-oxoethyl)piperazin-1-yl)methyl)piperidin-1-yl)-2-oxoethyl)-1H-pyrazol-4-yl)pyrazolo[1,5-a]pyrimidine-3-carboxamide] | 0.42 | 1.25 | 0.0224
3 | O=C(Nc1cn(CC(O)CN2CCCCC2)nc1-c1cc(Cl)ccc1OC(F)F)c1cnn2cccnc12 (stereo not drawn) [Example 405, N-(3-(5-chloro-2-(difluoromethoxy)phenyl)-1-(2-hydroxy-3-(piperidin-1-yl)propyl)-1H-pyrazol-4-yl)pyrazolo[1,5-a]pyrimidine-3-carboxamide] | 1.73 | 0.68 | 0.0257
4 | CC1(CN2CCN(C(=O)Cn3cc(NC(=O)c4cnn5cccnc45)c(-c4cc(Cl)ccc4OC(F)F)n3)CC2)COC1 [Example 318, N-[3-[5-chloro-2-(difluoromethoxy)phenyl]-1-(2-[4-[(3-methyloxetan-3-yl)methyl]piperazin-1-yl]-2-oxoethyl)-1H-pyrazol-4-yl]pyrazolo[1,5-a]pyrimidine-3-carboxamide] | 0.56 | 1.11 | 0.0283
5 | CN(C)CC(=O)Cn1cc(NC(=O)c2cnn3cccnc23)c(-c2cc(Cl)ccc2OC(F)F)n1 [Example 411, N-(3-(5-chloro-2-(difluoromethoxy)phenyl)-1-(3-(dimethylamino)-2-oxopropyl)-1H-pyrazol-4-yl)pyrazolo[1,5-a]pyrimidine-3-carboxamide] | 1.7 | 0.43 | 0.0228
6 | O=C1C=C(CN2CCN(C(=O)Cn3cc(NC(=O)c4cnn5cccnc45)c(-c4cc(Cl)ccc4OC(F)F)n3)CC2)CO1 [Example 351, N-[3-[5-chloro-2-(difluoromethoxy)phenyl]-1-(2-oxo-2-[4-[(5-oxo-2,5-dihydrofuran-3-yl)methyl]piperazin-1-yl]ethyl)-1H-pyrazol-4-yl]pyrazolo[1,5-a]pyrimidine-3-carboxamide] | 0.46 | 0.94 | 0.0365
7 | O=C(Nc1cn(CC(=O)N2CCC(N3CC4CC(C3)O4)CC2)nc1-c1cc(Cl)ccc1OC(F)F)c1cnn2cccnc12 [Example 450, N-(1-(2-(4-(6-oxa-3-aza-bicyclo[3.1.1]heptan-3-yl)piperidin-1-yl)-2-oxoethyl)-3-(5-chloro-2-(difluoromethoxy)phenyl)-1H-pyrazol-4-yl)pyrazolo[1,5-a]pyrimidine-3-carboxamide] | 0.37 | 0.97 | 0.0126
8 | CN(CCC#N)C1CCC(=CCn2cc(NC(=O)c3cnn4cccnc34)c(-c3cc(Cl)ccc3OC(F)F)n2)CC1 (stereo not drawn) [Example 420, N-(3-(5-chloro-2-(difluoromethoxy)phenyl)-1-(2-(4-((2-cyanoethyl)(methyl)amino)cyclohexylidene)ethyl)-1H-pyrazol-4-yl)pyrazolo[1,5-a]pyrimidine-3-carboxamide] | 0.57 | 0.81 | 0.0301
9 | O=C(O)CNC1CCN(C(=O)Cn2cc(NC(=O)c3cnn4cccnc34)c(-c3cc(Cl)ccc3OC(F)F)n2)CC1 [Example 365, 2-[[1-(2-[3-[5-chloro-2-(difluoromethoxy)phenyl]-4-[pyrazolo[1,5-a]pyrimidine-3-amido]-1H-pyrazol-1-yl]acetyl)piperidin-4-yl]amino]acetic acid] | 0.41 | 0.55 | 7.56
10 | N#CCCCNC1CCN(C(=O)Cn2cc(NC(=O)c3cnn4cccnc34)c(-c3cc(Cl)ccc3OC(F)F)n2)CC1 [Example 456, N-(3-(5-chloro-2-(difluoromethoxy)phenyl)-1-(2-(4-(3-cyanopropyl-amino)piperidin-1-yl)-2-oxoethyl)-1H-pyrazol-4-yl)pyrazolo[1,5-a]pyrimidine-3-carboxamide] | 0.49 | 1.11 | 0.041
11 | CC(C#N)CNC1CCN(C(=O)Cn2cc(NC(=O)c3cnn4cccnc34)c(-c3cc(Cl)ccc3OC(F)F)n2)CC1 (stereo not drawn) [Example 419, N-(3-(5-chloro-2-(difluoromethoxy)phenyl)-1-(2-(4-(2-cyanopropyl-amino)piperidin-1-yl)-2-oxoethyl)-1H-pyrazol-4-yl)pyrazolo[1,5-a]pyrimidine-3-carboxamide] | 0.41 | 1.06 | 0.0313
12 | O=C(Nc1cn(CC(=O)N2CCN(CC3CCOCC3)CC2)nc1-c1cc(Cl)ccc1OC(F)F)c1cnn2cccnc12 [Example 458, N-(3-(5-chloro-2-(difluoromethoxy)phenyl)-1-(2-oxo-2-(4-((tetrahydro-2H-pyran-4-yl)methyl)piperazin-1-yl)ethyl)-1H-pyrazol-4-yl)pyrazolo[1,5-a]pyrimidine-3-carboxamide] | 0.47 | 0.9 | 0.0081
13 | O=C(Nc1cn(CC(=O)N2CCC(N3CCSCC3)CC2)nc1-c1cc(Cl)ccc1OC(F)F)c1cnn2cccnc12 [Example 434, N-(3-(5-chloro-2-(difluoromethoxy)phenyl)-1-(2-oxo-2-(4-thiomorpholinopiperidin-1-yl)ethyl)-1H-pyrazol-4-yl)pyrazolo[1,5-a]pyrimidine-3-carboxamide] | 0.31 | 0.67 | 0.0187
14 | CC(C)(C)OC(=O)N1CC[C@@H](O)[C@H](n2cc(NC(=O)c3cnn4cccnc34)c(-c3cc(Cl)ccc3OC(F)F)n2)C1 (single isomer, unassigned) [Example 356] | 2.64 | 2.37 | 0.0396
15 | CCOC(=O)C1CCN(CCN2CCN(C(=O)Cn3cc(NC(=O)c4cnn5cccnc45)c(-c4cc(Cl)ccc4OC(F)F)n3)CC2)CC1 [Example 334, ethyl 1-[2-[4-(2-[3-[5-chloro-2-(difluoromethoxy)phenyl]-4-[pyrazolo[1,5-a]pyrimidine-3-amido]-1H-pyrazol-1-yl]acetyl)piperazin-1-yl]ethyl]piperidine-4-carboxylate] | 0.69 | 1.81 | 0.0061
16 | O=C(Nc1cn(Cc2cn(C3CCN(C4CCOC4)CC3)nn2)nc1-c1cc(Cl)ccc1OC(F)F)c1cnn2cccnc12 (stereo not drawn) [Example 455, N-(3-(5-chloro-2-(difluoromethoxy)phenyl)-1-((1-(1-(tetrahydrofuran-3-yl)piperidin-4-yl)-1H-1,2,3-triazol-4-yl)methyl)-1H-pyrazol-4-yl)pyrazolo[1,5-a]pyrimidine-3-carboxamide] | 0.3 | 0.15 | 0.021
17 | N#CC1(NC2CCN(C(=O)Cn3cc(NC(=O)c4cnn5cccnc45)c(-c4cc(Cl)ccc4OC(F)F)n3)CC2)CC1 [Example 436, N-(3-(5-chloro-2-(difluoromethoxy)phenyl)-1-(2-(4-(1-cyanocyclo-propylamino)piperidin-1-yl)-2-oxoethyl)-1H-pyrazol-4-yl)pyrazolo[1,5-a]pyrimidine-3-carboxamide] | 0.25 | 0.75 | 0.0103
18 | COC(=O)C1CCN(CCN2CCN(C(=O)Cn3cc(NC(=O)c4cnn5cccnc45)c(-c4cc(Cl)ccc4OC(F)F)n3)CC2)CC1 [Example 333, methyl1-[2-[4-(2-[3-[5-chloro-2-(difluoromethoxy)phenyl]-4-[pyrazolo[1,5-a]pyrimidine-3-amido]-1H-pyrazol-1-yl]acetyl)piperazin-1-yl]ethyl]piperidine-4-carboxylate] | 0.69 | 1.96 | 0.0065
19 | O=C(Nc1cn(CC(=O)N2CC3CCCNC3C2)nc1-c1cc(Cl)ccc1OC(F)F)c1cnn2cccnc12 (stereo not drawn) [Example 439, N-(3-(5-chloro-2-(difluoromethoxy)phenyl)-1-(2-(octahydropyrrolo[3,4-b]pyridin-6-yl)-2-oxoethyl)-1H-pyrazol-4-yl)pyrazolo[1,5-a]pyrimidine-3-carboxamide] | 0.71 | 0.78 | 0.0353
20 | O=C1CCC(Cn2cc(NC(=O)c3cnn4cccnc34)c(-c3cc(Cl)ccc3OC(F)F)n2)O1 (stereo not drawn) [Example 323] | 0.68 | 0.33 | 0.0209
21 | COC(=O)CCN(C)C1CCN(C(=O)Cn2cc(NC(=O)c3cnn4cccnc34)c(-c3cc(Cl)ccc3OC(F)F)n2)CC1 [Example 345, methyl 3-[[1-(2-[3-[5-chloro-2-(difluoromethoxy)phenyl]-4-[pyrazolo[1,5-a]pyrimidine-3-amido]-1H-pyrazol-1-yl]acetyl)piperidin-4-yl](methyl)amino]propanoate] | 0.59 | 1.47 | 0.0166
22 | N#CCCNC1CCC(=CCn2cc(NC(=O)c3cnn4cccnc34)c(-c3cc(Cl)ccc3OC(F)F)n2)CC1 (stereo not drawn) [Example 421, N-(3-(5-chloro-2-(difluoromethoxy)phenyl)-1-(2-(4-(2-cyanoethylamino)cyclohexylidene)ethyl)-1H-pyrazol-4-yl)pyrazolo[1,5-a]pyrimidine-3-carboxamide] | 0.65 | 0.89 | 0.0498
23 | CC1CN(C)CCN1C(=O)Cn1cc(NC(=O)c2cnn3cccnc23)c(-c2cc(Cl)ccc2OC(F)F)n1 (stereo not drawn) [Example 375, N-[3-[5-chloro-2-(difluoromethoxy)phenyl]-1-[2-(2,4-dimethylpiperazin-1-yl)-2-oxoethyl]-1H-pyrazol-4-yl]pyrazolo[1,5-a]pyrimidine-3-carboxamide] | 0.75 | 1.54 | 0.0716
